Article PMC9743128, “Phenotype-based screening rediscovered benzopyran-embedded microtubule inhibitors as anti-neuroinflammatory agents by modulating the tubulin–p65 interaction” (Experimental & Molecular Medicine, 2022)

Legend:
[1] = Pharmacokinetic (PK) study after IP injection; conditions: C57BL/6, mouse, in vivo, I.P., 5 mg/kg
C57BL/6 mice = assay: LPS neuroinflammation model; format: in vivo; conditions: 2 or 5 mg/kg IP daily for 4 days, LPS 5 mg/kg on Day 2
Method: All experiments were carried out with 10-week-old female C57BL/6 mice (20–25 g). The animals were divided into six experimental groups of three mice in each experiment: Group 1, treated with vehicle; Group 2, treated with SB26019 {2 mg/kg body weight (mpk)}; Group 3, treated with SB26019 (5 mpk); Group 4, treated with LPS and vehicle; Group 5, treated with LPS and SB26019 (2 mpk); and Group 6, treated with LPS and SB26019 (5 mpk). SB26019 (2 or 5 mpk) or vehicle {distilled water containing 5% DMSO and 40% polyethylene glycol 400 (TCI; N0433)} was administered with IP injection daily for 4 days. Five mpk of LPS (Sigma; L2880) in PBS was administered by IP injection on Day 2 for a single challenge. All mice were sacrificed on Day 5.
Mice were anesthetized with a mixture of alfaxalone and xylazine (5:1 ratio) and transcardially perfused with cold PBS. Mouse brains were harvested and fixed using 10% NBF (Sigma; HT501128) for 2 h. After washing with PBS for 30 min three times, fixed brains were embedded in OCT compound (Leica; #3801480) for frozen coronal sectioning at a thickness of 7 μm. […]
The perfused brains were minced with a 10 T scalpel blade. […] Microglia in the interphase between 70% and 37% Percoll solution was transferred and washed with HBSS media. mRNA was extracted from the microglia and analyzed with qPCR. […]

[2] = tested on: p65 nuclear translocation in J774A.1 and RAW264.7 cells; assay: p65 nuclear translocation by immunofluorescence staining; format: cell-based, murine; conditions: 10 μM for 1 h, then LPS; LPS alone 80%, basal 40%
Method: To monitor p65 translocation, J774A.1 cells were treated with compounds for 1 h, followed by LPS (100 ng/ml) treatment for 30 min. The cells were fixed with 4% paraformaldehyde (Sigma; #158127) in PBS (w/v) for 30 min at room temperature. After washing with 1× PBS (Welgene; ML008-02) three times, the fixed cells were permeabilized with PBS containing 0.1% Triton X-100 for 10 min. The cells were washed with 1× PBS three times and then blocked with 4% bovine serum albumin (MP Biomedicals; #0216006980) in PBS (w/v) for 1 h. The cells were incubated with mouse anti-p65 antibody (Santa Cruz; sc-8008, 1:200 diluted in 1% BSA–PBS) at 4 °C overnight and washed with PBS three times. FITC-labeled goat anti-mouse IgG antibody (Abcam; ab6785, 1:200 diluted in 1% BSA–PBS) was added to the sample and incubated for 1 h at room temperature. The remaining antibodies were finally washed three times with PBS. Nuclei were stained with Hoechst 33342 (Thermo; #62249). The cellular p65 proteins were imaged by fluorescence microscopy (GE Healthcare; Delta Vision) and quantified by the line profiling method.
During activation of the NF-κB signaling pathway, IκB is phosphorylated and degraded by proteasomes. The released p65 from IκB is translocated to the nucleus, inducing the transcription of target genes for inflammatory responses. Therefore, we monitored the translocation of p65 upon SB26019 treatment in J774A.1 and RAW264.7 murine macrophage cells stained with fluorescently labeled antibodies. […]

AUC(0-inf) [1]: 1790 ± 310 ng·h/mL
AUC(0-t) [1]: 1770 ± 300 ng·h/mL
Cmax [1]: 1200 ± 260 ng/mL
Tmax [1]: 0.17 h
half-life [1]: 3.57 ± 0.62 h
SMILES: COc1ccc2c(c1O)OC(C)(C)C=C2c1cccc2c1oc1ccccc12 [Compound 8]
Microglial activation (Iba-1-positive region of the brain) (C57BL/6 mice): efficiently regulated microglial activation in all brain regions in a dose-dependent manner
Transcription levels of cytokines and chemokines in brain microglia (qPCR) (C57BL/6 mice): efficiently inhibited the LPS-mediated upregulation of cytokines and chemokines
p65 nuclear translocation in the presence of LPS [2]: < 60%
